The source of these data is article PMC4249827, “A Novel CMKLR1 Small Molecule Antagonist Suppresses CNS Autoimmune Inflammatory Disease” (PLoS ONE, 2014).

Structures can show the parent of a compound that is named as a salt.

The conditions of series [1]: literature statement; cited from earlier work.
For series [2], the target named is T1, huCMKLR1 (Homo sapiens, UniProt Q99788).
T1 sequence (Q99788 1-373): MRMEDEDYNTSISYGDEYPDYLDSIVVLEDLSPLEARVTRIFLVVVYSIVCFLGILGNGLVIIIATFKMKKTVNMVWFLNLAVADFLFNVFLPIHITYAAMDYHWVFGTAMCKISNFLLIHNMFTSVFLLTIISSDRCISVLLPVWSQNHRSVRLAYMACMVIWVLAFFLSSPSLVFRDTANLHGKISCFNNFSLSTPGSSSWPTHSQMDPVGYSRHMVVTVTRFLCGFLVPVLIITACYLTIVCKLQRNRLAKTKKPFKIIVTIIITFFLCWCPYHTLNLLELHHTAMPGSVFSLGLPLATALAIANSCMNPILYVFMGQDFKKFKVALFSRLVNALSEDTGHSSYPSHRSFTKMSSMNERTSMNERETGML
Description: Transwell chemotaxis of huCMKLR1/L1.2 transfectants to chemerin.

Series [3] addresses T1, huCMKLR1. Description: β-arrestin2 (β-ARR2) enzymatic complementation assay, CMKLR1/CHO cells. The class given is cell-based. More on the design: host or cells: CHO. The following applies: for IC50: mean±SEM, n = 3-14 independent experiments, read-out: IC50 (µM), β-arrestin, huCMKLR1. An excerpt:
The engagement of a chemoattractant receptor by its cognate ligand stimulates the recruitment of β-arrestin to the carboxyl-terminus of the receptor, an event that results in receptor internalization and termination of G protein-mediated signaling. […] To test this, we used an enzymatic complementation assay (the β-ARR2 assay), whereby the complementary fragments from the β-gal active site are fused to the carboxyl-terminus of CMKLR1 and β-arrestin2. The special association of these molecules leads to enzyme activity, which is detected by a chemiluminescent substrate.

The target of another series is T2, mCMKLR1 (Mus musculus, UniProt P97468).
T2 sequence (P97468 1-371): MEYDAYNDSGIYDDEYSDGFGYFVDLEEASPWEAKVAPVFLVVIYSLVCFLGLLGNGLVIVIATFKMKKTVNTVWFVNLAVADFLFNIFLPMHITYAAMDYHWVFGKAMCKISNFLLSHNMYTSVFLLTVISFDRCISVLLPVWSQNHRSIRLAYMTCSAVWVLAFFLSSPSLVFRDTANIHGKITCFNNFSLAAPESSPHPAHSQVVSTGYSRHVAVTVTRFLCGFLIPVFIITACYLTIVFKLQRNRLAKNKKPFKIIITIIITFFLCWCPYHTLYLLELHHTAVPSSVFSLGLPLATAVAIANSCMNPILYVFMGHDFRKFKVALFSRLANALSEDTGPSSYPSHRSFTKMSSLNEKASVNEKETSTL
Briefly: Transwell chemotaxis of mCMKLR1/L1.2 transfectants to chemerin.

For series [4], the system named is Choline acetyltransferase. The following applies: cited from earlier work.

`COC(=O)/C=C/C(=O)O` [monomethyl fumarate]: in series [1], the “bound by serum proteins” value is 30%.
With `c1ccc2ccccc2c1` [naphthalene, reference compound], the results for the IC50 against huCMKLR1 [2], at huCMKLR1 [3] and on mCMKLR1 were over 100 µM, over 10 µM and over 100 µM, respectively. Moreover, the “inhibitory activity in the in vitro assays” value against huCMKLR1 [3] (β-ARR2 and transwell migration assays) is “no inhibitory activity”.
As for `CN(C)CCC(=O)c1cccc2ccccc12` [α-NEDA, 2-(α-naphthoyl)ethyldimethylamine], the IC50 turned out to be 77 ± 23 µM against huCMKLR1 [2], 7.5 ± 0.74 µM on huCMKLR1 [3] and 78 ± 22 µM against mCMKLR1. The “fold less potent than α-NETA” value on huCMKLR1 [3] (chemerin-stimulated β-ARR2 association with CMKLR1 or CMKLR1+ cell migration) is given as 10–20 fold. Also, the “fold less potent than α-NETA in inhibiting ChAT enzyme activity” value in series [4] is reported as 7 fold.

The term IC50 denotes the concentration that inhibits the measured activity by half.
